Reference: patent US10975078B2, “Fused indazole pyridone compounds as antivirals” (priority 2017, dated 2021)

Each molecule was assayed on HBsAg secretion, HepG2-Clone42 cells (Tet-inducible HBV-expressing, HBV ayw strain) (assay: HBsAg assay (HBsAg ELISA, secreted HBV sAg from HepG2-Clone42 cells)). Conditions: Hepatitis B virus, read-out: HBsAg (nM), EC50 = concentration at which HBsAg secretion was reduced 50% compared to DMSO control.
Format: cell-based
Outline: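 HepG2-Clone42 cells (Tet-inducible, integrated 1.3-mer HBV ayw) treated 24 h post-seeding with five-fold serial compound dilutions, 0.5% DMSO final. Secreted HBsAg measured by ELISA (A450); EC50 for 50% reduction vs DMSO control after background subtraction, four-parameter logistic fit.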
For COCCOc1cccc2c3n(nc12)C1CCC(C)(C)C1n1cc(C(=O)O)c(=O)cc1-3 (single isomer, unassigned) [Example 6.2-I, 12-(2-methoxyethoxy)-3,3-dimethyl-7-oxo-2,3,3a,14a-tetrahydro-1H,7H-cyclopenta[5,6]pyrido[2′,1′:3,4]pyrazino[1,2-b]indazole-6-carboxylic Acid], the EC50 was 1 to 100 nM. CC(C)(C)C1Cn2nc3c(OCCOCC(F)(F)F)cccc3c2-c2cc(=O)c(C(=O)O)cn21 (stereo not shown) [Example 2.3, 6-(tert-butyl)-2-oxo-10-(2-(2,2,2-trifluoroethoxy)ethoxy)-6,7-dihydro-2H-pyrido[2′,1′:3,4]pyrazino[1,2-b]indazole-3-carboxylic Acid] gave an EC50 of less than 1 nM. With COCC1(COc2cccc3c4n(nc23)CC(C(C)(C)C)n2cc(C(=O)O)c(=O)cc2-4)CCC1 (stereo not shown) [Example 2.4, 6-(tert-butyl)-10-((1-(methoxymethyl)cyclobutyl)methoxy)-2-oxo-6,7-dihydro-2H-pyrido[2′,1′:3,4]pyrazino[1,2-b]indazole-3-carboxylic Acid] the EC50 was greater than 100 nM. Molecule CC(C)(C)C1Cn2nc3c(OC(F)F)cccc3c2-c2cc(=O)c(C(=O)O)cn21 (stereo not shown) [Example 2.5, 6-(tert-butyl)-10-(difluoromethoxy)-2-oxo-6,7-dihydro-2H-pyrido[2′,1′:3,4]pyrazino[1,2-b]indazole-3-carboxylic Acid] has an EC50 of 1 to 100 nM. CC(C)(C)C1Cn2nc3c(OCC4CCCO4)cccc3c2-c2cc(=O)c(C(=O)O)cn21 (stereo not shown) [Example 2.25, 6-(tert-butyl)-2-oxo-10-((tetrahydrofuran-2-yl)methoxy)-6,7-dihydro-2H-pyrido[2′,1′:3,4]pyrazino[1,2-b]indazole-3-carboxylic Acid] was tested, and the EC50 was 1 to 100 nM. COCCCOc1cccc2c3n(nc12)C[C@@H](C(C)(C)C)n1cc(C(=O)O)c(=O)cc1-3 [Example 9.1, (R)-6-(tert-butyl)-10-(3-methoxypropoxy)-2-oxo-6,7-dihydro-2H-pyrido[2′,1′:3,4]pyrazino[1,2-b]indazole-3-carboxylic Acid] was tested, and the EC50 was less than 1 nM.

Same assay, conditions: read-out: HBsAg, EC50 = concentration at which HBsAg secretion was reduced 50% compared to DMSO control
COc1cccc2c3n(nc12)CC(C(C)(C)CO)n1cc(C(=O)O)c(=O)cc1-3 (single isomer, unassigned) [Example 3.1-II, 6-(1-hydroxy-2-methylpropan-2-yl)-10-methoxy-2-oxo-6,7-dihydro-2H-pyrido[2′,1′:3,4]pyrazino[1,2-b]indazole-3-carboxylic Acid] gave an EC50 of 1 to 100 nM. COCC(C)(C)C1Cn2nc3c(OC)cccc3c2-c2cc(=O)c(C(=O)O)cn21 (single isomer, unassigned) [Example 4.1-I, 10-methoxy-6-(1-methoxy-2-methylpropan-2-yl)-2-oxo-6,7-dihydro-2H-pyrido[2′,1′:3,4]pyrazino[1,2-b]indazole-3-carboxylic Acid] gave an EC50 of less than 1 nM. COCC(C)(C)C1Cn2nc3c(OC)cccc3c2-c2cc(=O)c(C(=O)O)cn21 (single isomer, unassigned) [Example 4.1-II, 10-methoxy-6-(1-methoxy-2-methylpropan-2-yl)-2-oxo-6,7-dihydro-2H-pyrido[2′,1′:3,4]pyrazino[1,2-b]indazole-3-carboxylic Acid] gave an EC50 greater than 100 nM. Molecule COc1cccc2c3n(nc12)C1CCC(C)(C)C1n1cc(C(=O)O)c(=O)cc1-3 (single isomer, unassigned) [Example 5.1-I, 12-methoxy-3,3-dimethyl-7-oxo-2,3,3a,14a-tetrahydro-1H,7H-cyclopenta[5,6]pyrido[2′,1′:3,4]pyrazino[1,2-b]indazole-6-carboxylic Acid] has an EC50 of less than 1 nM. COc1cccc2c3n(nc12)C1CCC(C)(C)C1n1cc(C(=O)O)c(=O)cc1-3 (single isomer, unassigned) [Example 5.1-II, 12-methoxy-3,3-dimethyl-7-oxo-2,3,3a,14a-tetrahydro-1H,7H-cyclopenta[5,6]pyrido[2′,1′:3,4]pyrazino[1,2-b]indazole-6-carboxylic Acid] showed an EC50 greater than 100 nM. CC1(C)CCC2C1n1cc(C(=O)O)c(=O)cc1-c1c3cccc(F)c3nn12 (single isomer, unassigned) [Example 5.2-I, 12-fluoro-3,3-dimethyl-7-oxo-2,3,3a,14a-tetrahydro-1H,7H-cyclopenta[5,6]pyrido[2′,1′:3,4]pyrazino[1,2-b]indazole-6-carboxylic Acid] showed an EC50 of 1 to 100 nM. For CC1(C)CCC2C1n1cc(C(=O)O)c(=O)cc1-c1c3cccc(F)c3nn12 (single isomer, unassigned) [Example 5.2-II, 12-fluoro-3,3-dimethyl-7-oxo-2,3,3a,14a-tetrahydro-1H,7H-cyclopenta[5,6]pyrido[2′,1′:3,4]pyrazino[1,2-b]indazole-6-carboxylic Acid], the EC50 was greater than 100 nM. COCCCOc1cccc2c3n(nc12)C1CCC(C)(C)C1n1cc(C(=O)O)c(=O)cc1-3 (single isomer, unassigned) [Example 6.1-I, 12-(3-methoxypropoxy)-3,3-dimethyl-7-oxo-2,3,3a,14a-tetrahydro-1H,7H-cyclopenta[5,6]pyrido[2′,1′:3,4]pyrazino[1,2-b]indazole-6-carboxylic Acid] showed an EC50 greater than 100 nM. With COCCCOc1cccc2c3n(nc12)C1CCC(C)(C)C1n1cc(C(=O)O)c(=O)cc1-3 (single isomer, unassigned) [Example 6.1-II, 12-(3-methoxypropoxy)-3,3-dimethyl-7-oxo-2,3,3a,14a-tetrahydro-1H,7H-cyclopenta[5,6]pyrido[2′,1′:3,4]pyrazino[1,2-b]indazole-6-carboxylic Acid] the EC50 was less than 1 nM. For COCCOc1cccc2c3n(nc12)C1CCC(C)(C)C1n1cc(C(=O)O)c(=O)cc1-3 (single isomer, unassigned) [Example 6.2-II, 12-(2-methoxyethoxy)-3,3-dimethyl-7-oxo-2,3,3a,14a-tetrahydro-1H,7H-cyclopenta[5,6]pyrido[2′,1′:3,4]pyrazino[1,2-b]indazole-6-carboxylic Acid], the EC50 was less than 1 nM. Molecule COCCCOc1cccc2c3n(nc12)CC(C(C)(C)COC)n1cc(C(=O)O)c(=O)cc1-3 (single isomer, unassigned) [Example 7.1-I, 6-(1-methoxy-2-methylpropan-2-yl)-10-(3-methoxypropoxy)-2-oxo-6,7-dihydro-2H-pyrido[2′,1′:3,4]pyrazino[1,2-b]indazole-3-carboxylic Acid] has an EC50 greater than 100 nM. For COCCCOc1cccc2c3n(nc12)CC(C(C)(C)COC)n1cc(C(=O)O)c(=O)cc1-3 (single isomer, unassigned) [Example 7.1-II, 6-(1-methoxy-2-methylpropan-2-yl)-10-(3-methoxypropoxy)-2-oxo-6,7-dihydro-2H-pyrido[2′,1′:3,4]pyrazino[1,2-b]indazole-3-carboxylic Acid], the EC50 was less than 1 nM. Work on COCCCOc1cccc2c3n(nc12)CC(C(C)(C)C)n1cc(C(=O)O)c(=O)c(F)c1-3 (single isomer, unassigned) [Example 8.1-I, 6-(tert-butyl)-1-fluoro-10-(3-methoxypropoxy)-2-oxo-6,7-dihydro-2H-pyrido[2′,1′:3,4]pyrazino[1,2-b]indazole-3-carboxylic Acid] yielded an EC50 greater than 100 nM. With COCCCOc1cccc2c3n(nc12)CC(C(C)(C)C)n1cc(C(=O)O)c(=O)c(F)c1-3 (single isomer, unassigned) [Example 8.1-II, 6-(tert-butyl)-1-fluoro-10-(3-methoxypropoxy)-2-oxo-6,7-dihydro-2H-pyrido[2′,1′:3,4]pyrazino[1,2-b]indazole-3-carboxylic Acid] the EC50 was 1 to 100 nM. Molecule COc1cccc2c3n(nc12)C1COC(C)(C)C1n1cc(C(=O)O)c(=O)cc1-3 (single isomer, unassigned) [Example 10.1-I, 12-methoxy-3,3-dimethyl-7-oxo-1,3,3a,14a-tetrahydro-7H-furo[3′,4′:5,6]pyrido[2′,1′:3,4]pyrazino[1,2-b]indazole-6-carboxylic Acid] has an EC50 greater than 100 nM. COc1cccc2c3n(nc12)C1COC(C)(C)C1n1cc(C(=O)O)c(=O)cc1-3 (single isomer, unassigned) [Example 10.1-II, 12-methoxy-3,3-dimethyl-7-oxo-1,3,3a,14a-tetrahydro-7H-furo[3′,4′:5,6]pyrido[2′,1′:3,4]pyrazino[1,2-b]indazole-6-carboxylic Acid] was tested, and the EC50 was 1 to 100 nM.
